Measured values taken from patent publication US20240207458A1, “TARGETED ALPHA PARTICLE THERAPY FOR SOMATOSTATIN RECEPTOR 2 POSITIVE NEUROENDOCRINE TUMORS AND METASTASES” (H. LEE MOFFITT CANCER CENTER AND RESEARCH INSTITUTE, INC., priority 2021, published 2024).
One block for each molecule: values may come before it. Bridge positions count the residues as written; N and C are the ends. Square brackets hold non-standard residues; d marks the D form. Peptide text beside a SMILES is read from it. * marks the point of attachment. DOTA = O=C(O)CN1CCN(CC(=O)O)CCN(CC(=O)*)CCN(CC(=O)O)CC1

Tests used:
[1] = 225Ac chelate, non-tumor bearing BALB/c mice
Method: BD of ^225Ac-DOTA-linker-TATE derivatives in non-tumor bearing BALB/c mice: The biodistribution studies for all 5 compounds were conducted (FIG. 4 and Table 1).

[2] = Log D7.4, miniaturized shake flask assay (n-octanol/PBS pH 7.4); type: physicochemical; conditions: for Log D7.4 of La^3+ chelate: La3+ chelate, n-octanol/PBS; for LogD7.4: metal chelate as named (Eu or La)
Method: Log D7.4 measurements of the La^3+-labeled derivatives: The octanol-water partition coefficients at pH7.4 (LogD7.4) of DOTA-linker-TATE derivatives were determined using the miniaturized shake flask assay (Table 1). Briefly, 1:1 n-octanol (HPLC grade) was added to the solution of the test compound in PBS buffer (NaH2PO4/Na2HPO4 buffer, pH 7.4). The mixture was well mixed and then two layers were separated by centrifuge. The concentrations of compound in each layer were determined by HPLC.

SSTR2 receptor = molecular target: T1, SSTR2 receptor (Homo sapiens, UniProt P30874); assay: whole-cell competition binding assay with Eu-DOTATATE as competing ligand (Hek293/SSTR2 cells); conditions: FIGS. 5 and 6
T1 construct: expressed in transfected cells; host or cells: Hek293/SSTR2 cells
T1 sequence (P30874 whole entry): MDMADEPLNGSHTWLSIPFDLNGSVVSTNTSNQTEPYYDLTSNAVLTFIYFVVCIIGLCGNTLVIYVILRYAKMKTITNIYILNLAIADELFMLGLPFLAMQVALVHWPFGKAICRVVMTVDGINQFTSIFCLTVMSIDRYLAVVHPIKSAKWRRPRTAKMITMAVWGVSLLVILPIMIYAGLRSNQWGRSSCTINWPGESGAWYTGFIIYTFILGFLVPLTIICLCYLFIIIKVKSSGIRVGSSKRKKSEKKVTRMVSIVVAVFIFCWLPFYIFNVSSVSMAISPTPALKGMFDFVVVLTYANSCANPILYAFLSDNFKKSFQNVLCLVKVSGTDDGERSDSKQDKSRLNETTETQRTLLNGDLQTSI
Method: Competition curves were analyzed with GraphPad Prism software using the sigmoidal dose-response (variable slope) classical equation for nonlinear regression analysis.

[3] = parameters: species or system BALB/c mice; conditions: mouse, in vivo
Method: (§1) Non-tumor bearing BALB/c mice were tested for toxicity and BD. […] RD was calculated using the BD data.
(§2) RD calculations determined pharmacokinetics parameters and absorbed α-emission dosages from ^225Ac and its daughters.

in vitro = in vitro ADME; conditions: human, plasma
Method: The compound was >95% intact after 5 days incubation.

[4] = mouse, in vivo
Method: as §1, §2

Molecule: C[C@@H](O)[C@H](NC(=O)[C@@H]1CSSC[C@H](NC(=O)[C@@H](Cc2ccccc2)NC(=O)CN2CCN(CC(=O)O)CCN(CC(=O)O)CCN(CC(=O)O)CC2)C(=O)N[C@@H](Cc2ccc(O)cc2)C(=O)N[C@H](Cc2c[nH]c3ccccc23)C(=O)N[C@@H](CCCCN)C(=O)N[C@@H]([C@@H](C)O)C(=O)N1)C(=O)O [Compound 1, DOTA-TATE, reference compound]
Kidney/Liver uptake ratio (24 h) [1]: 3.6

Molecule: C[C@@H](O)[C@H](NC(=O)[C@@H]1CSSC[C@H](NC(=O)[C@@H](Cc2ccccc2)NC(=O)CCCCCNC(=O)CN2CCN(CC(=O)O)CCN(CC(=O)O)CCN(CC(=O)O)CC2)C(=O)N[C@@H](Cc2ccc(O)cc2)C(=O)N[C@H](Cc2c[nH]c3ccccc23)C(=O)N[C@@H](CCCCN)C(=O)N[C@@H]([C@@H](C)O)C(=O)N1)C(=O)O [Compound 2, DOTA-Ahx-TATE]
Kidney/Liver uptake ratio (24 h) [1]: 5.3

Molecule: C[C@@H](O)[C@H](NC(=O)[C@@H]1CSSC[C@H](NC(=O)[C@@H](Cc2ccccc2)NC(=O)[C@@H](CCC(=O)O)NC(=O)[C@@H](CCC(=O)O)NC(=O)CN2CCN(CC(=O)O)CCN(CC(=O)O)CCN(CC(=O)O)CC2)C(=O)N[C@@H](Cc2ccc(O)cc2)C(=O)N[C@H](Cc2c[nH]c3ccccc23)C(=O)N[C@@H](CCCCN)C(=O)N[C@@H]([C@@H](C)O)C(=O)N1)C(=O)O [Compound 3, DOTA-di-D-Glu-TATE]
Kidney/Liver uptake ratio (24 h) [1]: 16.5

Molecule: C[C@@H](O)[C@H](NC(=O)[C@@H]1CSSC[C@H](NC(=O)[C@@H](Cc2ccccc2)NC(=O)[C@@H](CCCCN)NC(=O)[C@@H](CCCCN)NC(=O)CN2CCN(CC(=O)O)CCN(CC(=O)O)CCN(CC(=O)O)CC2)C(=O)N[C@@H](Cc2ccc(O)cc2)C(=O)N[C@H](Cc2c[nH]c3ccccc23)C(=O)N[C@@H](CCCCN)C(=O)N[C@@H]([C@@H](C)O)C(=O)N1)C(=O)O [Compound 4, DOTA-di-D-Lys-TATE]
Kidney/Liver uptake ratio (24 h) [1]: 89.6

Molecule: C[C@@H](NC(=O)[C@@H](Cc1ccccc1)NC(=O)CN1CCN2CCN3CCN(CC1)CC(=O)[O][139La]([O]C(=O)C2)[O]C(=O)C3)C(=O)N[C@H](Cc1ccccc1)C(=O)N[C@H]1CSSC[C@@H](C(=O)N[C@H](C(=O)O)[C@@H](C)O)NC(=O)[C@H]([C@@H](C)O)NC(=O)[C@H](CCCCN)NC(=O)[C@@H](Cc2c[nH]c3ccccc23)NC(=O)[C@H](Cc2ccc(O)cc2)NC1=O [Compound 14, 139La-DOTA-D-Phe-D-Ala-TATE]
binding affinity for the SSTR2 receptor (SSTR2 receptor): high binding affinity (low nM Ki)

Molecule: CC(C)C[C@@H](NC(=O)[C@@H](Cc1ccccc1)NC(=O)CN1CCN2CCN3CCN(CC1)CC(=O)[O][139La]([O]C(=O)C2)[O]C(=O)C3)C(=O)N[C@H](Cc1ccccc1)C(=O)N[C@H]1CSSC[C@@H](C(=O)N[C@H](C(=O)O)[C@@H](C)O)NC(=O)[C@H]([C@@H](C)O)NC(=O)[C@H](CCCCN)NC(=O)[C@@H](Cc2c[nH]c3ccccc23)NC(=O)[C@H](Cc2ccc(O)cc2)NC1=O [Compound 15, 139La-DOTA-D-Phe-D-Leu-TATE]
binding affinity for the SSTR2 receptor (SSTR2 receptor): high binding affinity (low nM Ki)

Molecule: DOTA-D-Lys-D-Glu-TATE [Compound 5]
Kidney/Liver uptake ratio (24 h) [1]: 87.6

More lines, main results first:

Log D7.4 of La^3+ chelate [2]: −3.28
LogD7.4 [2]: −3.28
Molecule: C[C@@H](O)[C@H](NC(=O)[C@@H]1CSSC[C@H](NC(=O)[C@@H](Cc2ccccc2)NC(=O)[C@@H](CCCCN)NC(=O)[C@@H](CCCCN)NC(=O)CN2CCN(CC(=O)O)CCN(CC(=O)O)CCN(CC(=O)O)CC2)C(=O)N[C@@H](Cc2ccc(O)cc2)C(=O)N[C@H](Cc2c[nH]c3ccccc23)C(=O)N[C@@H](CCCCN)C(=O)N[C@@H]([C@@H](C)O)C(=O)N1)C(=O)O [Compound 10, La-DOTA-D-Lys-D-Lys-TATE]

Log D7.4 of La^3+ chelate [2]: −3.10
LogD7.4 [2]: −3.10
Molecule: C[C@@H](O)[C@H](NC(=O)[C@@H]1CSSC[C@H](NC(=O)[C@@H](Cc2ccccc2)NC(=O)[C@@H](CCC(=O)O)NC(=O)[C@@H](CCCCN)NC(=O)CN2CCN(CC(=O)O)CCN(CC(=O)O)CCN(CC(=O)O)CC2)C(=O)N[C@@H](Cc2ccc(O)cc2)C(=O)N[C@H](Cc2c[nH]c3ccccc23)C(=O)N[C@@H](CCCCN)C(=O)N[C@@H]([C@@H](C)O)C(=O)N1)C(=O)O [Compound 11, La-DOTA-D-Lys-D-Glu-TATE] ({DOTA}-[dK][dE][dF]CY[dW]KTCT-OH; disulfide 4-9)

primary route of elimination [3]: renal route
remaining at 120 h (in vitro): 96.7 ± 2.06%
% Intact TLC scanner (in vitro; 24 h): 100.44 ± 0.88%
% Intact TLC scanner (in vitro; 72 h): 99.27 ± 0.29%
% Intact TLC scanner (in vitro; 168 h): 93.19 ± 1.50%
% Intact TLC scanner (in vitro; 240 h): 90.29 ± 4.00%
Molecule: C[C@@H](O)[C@H](NC(=O)[C@@H]1CSSC[C@H](NC(=O)[C@@H](Cc2ccccc2)NC(=O)CN2CCN(CC(=O)O)CCN(CC(=O)O)CCN(CC(=O)O)CC2)C(=O)N[C@@H](Cc2ccc(O)cc2)C(=O)N[C@H](Cc2c[nH]c3ccccc23)C(=O)N[C@@H](CCCCN)C(=O)N[C@@H]([C@@H](C)O)C(=O)N1)C(=O)O [^225Ac-DOTATATE, metal not drawn]
appearance / indications of toxicity [4]: no indications of toxicity

LogD7.4 [2]: −2.80
Molecule: Eu-DOTA-TATE [Compound 6, reference compound]
